These results are taken from PubChem BioAssay AID250 (DTP/NCI, 2004).

In this experiment the test system is BDF1 mice, L1210 leukemia sc, survival T/C. In words: NCI In Vivo Anticancer Drug Screen. Data for tumor model L1210 Leukemia (subcutaneous) in B6D2F1 (BDF1) mice. Particulars: endpoint: median survival time, higher = longer survival. How it is done:
The antitumor activity of compounds was measured in mice bearing transplantable tumors. Survival or tumor size were measured and the results are expressed as the measurement made in the treated group (T) divided by the measurement made in the vehicle treated control group (C). The tumor model used in this assay is L1210 Leukemia (subcutaneous) in B6D2F1 (BDF1) mice

[1] abbreviates: dose: 0.65 mg/kg/injection, schedule: Q01DX Z (sc), vehicle: methylcellulose (MC).
[2] abbreviates: dose: 1.08 mg/kg/injection, schedule: Q01DX Z (sc), vehicle: methylcellulose (MC).
[3] abbreviates: dose: 3.0 mg/kg/injection, schedule: Q01DX Z (sc), vehicle: methylcellulose (MC).
[4] abbreviates: dose: 5.0 mg/kg/injection, schedule: Q01DX Z (sc), vehicle: methylcellulose (MC).
Setting [5] is: dose: 10.0 mg/kg/injection, schedule: Q01DX Z (sc), vehicle: methylcellulose (MC).
[6] abbreviates: dose: 1.8 mg/kg/injection, schedule: Q01DX Z (sc), vehicle: methylcellulose (MC).

Values joined by “and” are separate entries in the source; they are usually repeats but may differ in a detail not shown here. Identical values can stand only once. Toxic doses and inconclusive results are not listed.

As to `Nc1nc(=S)c2[nH]cnc2[nH]1`, the T/C was 100 % of control and 102 % of control (dose: 0.37 mg/kg/injection, schedule: Q01DX009 (sc), vehicle: other); 104 % of control and 110 % of control (dose: 0.47 mg/kg/injection, schedule: Q01DX Z (sc), vehicle: methylcellulose (MC)); 100 % of control under setting [1]; 110 % of control and 111 % of control (dose: 0.75 mg/kg/injection, schedule: Q01DX009 (sc), vehicle: other); 100 % of control and 120 % of control (dose: 0.78 mg/kg/injection, schedule: Q01DX Z (sc), vehicle: methylcellulose (MC)); 100 % of control (dose: 1.0 mg/kg/injection, schedule: Q01DX Z (sc), vehicle: other). In addition, the T/C runs as follows: under setting [2], 109 % of control; (dose: 1.3 mg/kg/injection, schedule: Q01DX Z (sc), vehicle: methylcellulose (MC)) 118 % of control; (dose: 1.5 mg/kg/injection, schedule: Q01DX009 (sc), vehicle: other) 150 % of control; (dose: 1.5 mg/kg/injection, schedule: Q## X009 (sc), vehicle: other) 150 % of control; (dose: 1.8 mg/kg/injection, schedule: Q01DX Z (oral), vehicle: methylcellulose (MC)) 109 % of control; (dose: 2.0 mg/kg/injection, schedule: Q02DX Z (sc), vehicle: other) 118 % of control. Besides, the T/C by setting is: (dose: 2.16 mg/kg/injection, schedule: Q01DX Z (oral), vehicle: methylcellulose (MC)) 109 % of control; (dose: 2.5 mg/kg/injection, schedule: Q02DX009 (sc), vehicle: other) 152 % of control; (dose: 2.5 mg/kg/injection, schedule: Q02DX Z (sc), vehicle: other) 155 % of control; (dose: 3.0 mg/kg/injection, schedule: Q01DX009 (sc), vehicle: other) 150 % of control and 152 % of control and 156 % of control; (dose: 3.0 mg/kg/injection, schedule: Q01DX Z (oral), vehicle: methylcellulose (MC)) 118 % of control; under setting [3], 154 % of control. The T/C was 152 % of control (dose: 3.0 mg/kg/injection, schedule: Q## X009 (sc), vehicle: other); 109 % of control (dose: 3.6 mg/kg/injection, schedule: Q01DX Z (oral), vehicle: methylcellulose (MC)); 150 % of control (dose: 3.6 mg/kg/injection, schedule: Q01DX Z (sc), vehicle: methylcellulose (MC)); 159 % of control (dose: 4.0 mg/kg/injection, schedule: Q02DX Z (sc), vehicle: other); 154 % of control under setting [4]; 165 % of control (dose: 5.0 mg/kg/injection, schedule: Q02DX009 (sc), vehicle: other). Also, the T/C by setting is: (dose: 5.0 mg/kg/injection, schedule: Q02DX Z (sc), vehicle: other) 172 % of control; (dose: 6.0 mg/kg/injection, schedule: Q01DX009 (sc), vehicle: other) 155 % of control and 162 % of control; (dose: 6.0 mg/kg/injection, schedule: Q01DX Z (oral), vehicle: methylcellulose (MC)) 113 % of control; (dose: 6.0 mg/kg/injection, schedule: Q01DX Z (sc), vehicle: methylcellulose (MC)) 150 % of control; (dose: 8.0 mg/kg/injection, schedule: Q01DX Z (sc), vehicle: other) 154 % of control; (dose: 8.0 mg/kg/injection, schedule: Q02DX Z (sc), vehicle: other) 154 % of control. Besides, the T/C (dose: 8.4 mg/kg/injection, schedule: Q01DX Z (oral), vehicle: methylcellulose (MC)) was 163 % of control; the T/C (dose: 10.0 mg/kg/injection, schedule: Q01DX Z (oral), vehicle: methylcellulose (MC)) was 118 % of control; the T/C under setting [5] was 150 % of control; the T/C (dose: 10.0 mg/kg/injection, schedule: Q02DX009 (sc), vehicle: other) is 160 % of control; the T/C (dose: 10.0 mg/kg/injection, schedule: Q02DX Z (sc), vehicle: other) was 166 % of control; the T/C (dose: 16.0 mg/kg/injection, schedule: Q02DX Z (sc), vehicle: other) was 150 % of control. The T/C (dose: 17.0 mg/kg/injection, schedule: Q01DX Z (oral), vehicle: methylcellulose (MC)) is 118 % of control; the T/C (dose: 20.0 mg/kg/injection, schedule: Q02DX Z (sc), vehicle: other) was 150 % of control; the T/C (dose: 28.0 mg/kg/injection, schedule: Q01DX Z (oral), vehicle: methylcellulose (MC)) was 104 % of control; the T/C (dose: 32.0 mg/kg/injection, schedule: Q02DX Z (sc), vehicle: other) is 154 % of control; the T/C (dose: 39.0 mg/kg/injection, schedule: Q01DX Z (oral), vehicle: methylcellulose (MC)) was 154 % of control; the T/C (dose: 40.0 mg/kg/injection, schedule: Q02DX Z (sc), vehicle: other) is 155 % of control. Further, under “dose: 47.0 mg/kg/injection, schedule: Q01DX Z (oral), vehicle: methylcellulose (MC)”, the T/C was 109 % of control.

Turning to `CCCn1cnc2c(=S)nc(N)[nH]c21`, the T/C runs as follows: under setting [1], 100 % of control; (dose: 0.65 mg/kg/injection, schedule: Q01DX Z (sc), vehicle: other) 100 % of control; under setting [2], 100 % of control; (dose: 1.08 mg/kg/injection, schedule: Q01DX Z (sc), vehicle: other) 100 % of control; under setting [6], 100 % of control; (dose: 1.8 mg/kg/injection, schedule: Q01DX Z (sc), vehicle: other) 105 % of control. The T/C is 111 % of control under setting [3]; 111 % of control (dose: 3.0 mg/kg/injection, schedule: Q01DX Z (sc), vehicle: other); 111 % of control under setting [4]; 122 % of control (dose: 5.0 mg/kg/injection, schedule: Q01DX Z (sc), vehicle: other); 122 % of control (dose: 8.4 mg/kg/injection, schedule: Q01DX Z (sc), vehicle: methylcellulose (MC)); 155 % of control (dose: 8.4 mg/kg/injection, schedule: Q01DX Z (sc), vehicle: other). Besides, the T/C (dose: 14.0 mg/kg/injection, schedule: Q01DX Z (sc), vehicle: other) is 161 % of control; the T/C (dose: 230.0 mg/kg/injection, schedule: Q01DX Z (sc), vehicle: other) is 155 % of control; the T/C (dose: 390.0 mg/kg/injection, schedule: Q01DX Z (sc), vehicle: other) was 150 % of control.

For `O=C(O)c1[nH]c(=O)[nH]c(=O)c1F`, the T/C reads like this: (dose: 2.5 mg/kg/injection, schedule: Q01DX Z (sc), vehicle: methylcellulose (MC)) 105 % of control; (dose: 8.0 mg/kg/injection, schedule: Q01DX Z (sc), vehicle: saline) 166 % of control; under setting [5], 158 % of control; (dose: 16.0 mg/kg/injection, schedule: Q01DX Z (sc), vehicle: saline) 150 % of control; (dose: 20.0 mg/kg/injection, schedule: Q01DX Z (sc), vehicle: methylcellulose (MC)) 164 % of control; (dose: 32.0 mg/kg/injection, schedule: Q01DX Z (sc), vehicle: saline) 166 % of control. Besides, the T/C was 176 % of control (dose: 40.0 mg/kg/injection, schedule: Q01DX Z (sc), vehicle: methylcellulose (MC)); 155 % of control (dose: 64.0 mg/kg/injection, schedule: Q01DX Z (sc), vehicle: saline); 155 % of control (dose: 128.0 mg/kg/injection, schedule: Q01DX Z (sc), vehicle: saline); 150 % of control (dose: 256.0 mg/kg/injection, schedule: Q01DX Z (sc), vehicle: saline).

In the case of `CS(=O)(=O)OCCCCCCCCCOS(C)(=O)=O`, the T/C runs as follows: (dose: 47.0 mg/kg/injection, schedule: Q01DX Z (sc), vehicle: methylcellulose (MC)) 105 % of control; (dose: 78.0 mg/kg/injection, schedule: Q01DX Z (sc), vehicle: methylcellulose (MC)) 115 % of control; (dose: 216.0 mg/kg/injection, schedule: Q01DX Z (sc), vehicle: methylcellulose (MC)) 160 % of control.

Regarding `CCCCCn1c(C)cc(/C=C\c2ccc3cc(C)ccc3[n+]2C)c1C`, the T/C reads like this: (dose: 0.23 mg/kg/injection, schedule: Q01DX Z (sc), vehicle: methylcellulose (MC)) 100 % of control; (dose: 0.39 mg/kg/injection, schedule: Q01DX Z (sc), vehicle: methylcellulose (MC)) 100 % of control; under setting [1], 100 % of control; under setting [2], 100 % of control; under setting [6], 100 % of control.
